Results on three compounds are retold here after patent US20180179129A1, “SOLVENT COMPOSITIONS FOR USE AS HEXANE REPLACEMENTS” (TBF ENVIRONMENTAL TECHNOLOGY INC., priority 2015, published 2018).

Data set [1] is described as follows: Performance test: solvency of G1652 resin. The conditions noted are these: scale 1 = completely insoluble, 10 = completely soluble, >=6 soluble; 0.5 mL, ~20 mg resin, 22° C., 1 hour. It is filed as physicochemical. The protocol: (§1) Several compounds were combined in different initial blends (Table 1). Standardized performance tests on solvency of a variety of resins, including (but not limited to) Kraton resins G1652, KR1164, KR1171, and G1726, Sukorez resin SU100S, and paraffin wax.
(§2) The performance tests on resins were performed as follows: The addition of 0.5 mL of each formulation to an individual screw-cap vial containing a stirbar and resin (G1652: ˜20 mg, SU100S: ˜40 mg, G1726: ˜25 mg, KR1164: ˜20 mg, KR1171, ˜20 mg, paraffin wax: ˜55 mg). The vials were tightly capped and solutions were stirred on a stirplate (400 rpm) at 22° C. for 1 hour. The stirbar was removed and solvency was observed, photos of the results were taken (Formulations 1-27, G1652 and SU100S). The odor of the blends was also tested empirically. Evaporation rates were calculated based on weight averages (% by volume) of individual components.

Data set [2] is described as follows: Performance test: solvency of SU100S resin. It is filed as physicochemical. The settings on record: scale 1 = completely insoluble, 10 = completely soluble, >=6 soluble; 0.5 mL, ~40 mg resin, 22° C., 1 hour. The protocol:
as §1, §2

For data set [3] the following is noted: cited from earlier work.

Turning to `FC(F)(F)c1ccc(Cl)cc1` [Formulation 26, para-chlorobenzotrifluoride], in data set [1], the G1652 solvency is on record as 10. The compound also had an SU100S solvency in data set [2] of 10.
`CCCCCC` [Formulation 27, hexanes]: the G1652 solvency in data set [1] came out at 10. In data set [2], the SU100S solvency is listed as 10.
Take `COC(C)=O` [Methyl acetate]: the stability entry in data set [3] (in the presence of strong aqueous bases or aqueous acids) is listed as “not stable”. Further, the solubility in water in data set [3] (room temperature) was 25%.
